Results reported in patent US20040161781A1, “Compositions and methods for identifying thymidylate synthase modulators” (priority 2002, published 2004).
“Also recorded” adds a separate entry of the source. *1 amine or outer side, *2 acyl side, *3 side chain or, on linkers, in order; H or OH if unused. Where a SMILES comes first, the peptide text is derived from it. Bridges are numbered along the chain shown (N, C = ends). Roman numbers before positions name the chains, in order. [ ]: non-standard residue; d: D form. Actinocin(9to1) = Cc1c2oc3c(C)ccc(C(=O)[*:1])c3nc-2c(C(=O)[*:2])c(N)c1=O; NMeV = CN[C@H](C(=O)O)C(C)C; Sar = CNCC(=O)O

Tests used:
Format in all cases: cell-based, human
[1] = tested on: thymidylate synthase (TS); assay: Luciferase induction in H630 cells containing pG3E1-2TBE-Neo by acyl homoserine lactone; settings: 18 h
Description: FIG. 7. Induction of luciferase as a function of 3-oxo-6-hexanoyl-homoserine lactone concentrations. H630 cells containing pG3E1-2TBE-Neo were exposed to the indicated concentrations of 3-oxo-6-hexanoyl homoserine lactone for 18 hrs then analyzed for luciferase activity.
FIG. 8. Comparison of 5-fluorouracil (5-FU) and 3-oxo-hexanoyl-homoserine lactone on induction of luciferase. H630 cells containing pG3E1-2TBE-Neo were exposed to the indicated concentrations of each compound for 18 hrs and analyzed for luciferase activity.
H630 cells containing pG3E1-2TBE-Neo were exposed to the indicated concentrations of 3-oxo-6-hexanoyl homoserine lactone for 18 h then analyzed for luciferase activity (FIG. 7).

[2] = tested on: thymidylate synthase (TS); assay: Down-regulation of TS in H630 cells treated with acyl-homoserine lactones (Western blotting); settings: overnight (approximately 16 hours)
Description: FIG. 6. A representation of the ability of acyl homoserine lactones to down-regulate TS in H630 cells.
The signaling molecules produced by the rTS signaling pathway cause a decrease in the amount of TS found in cells. These signaling molecules can simulate the effects of the compound 3-oxo-hexanoyl homoserine lactone in activating the receptor for this compound when it is present in a recombinant bacteria. […] This hypothesis was validated by the results of an experiment portrayed in FIG. 6. Accordingly, the down-regulation of TS in H630 (human colon cancer) cells treated with acyl-homoserine lactones was tested. Cells growing in RPMI 1640 culture medium, supplemented with 10% dialyzed fetal bovine serum at 37° C. in an atmosphere of 95:5 air:CO2. The compounds with the structures shown were added to the cells and allowed to incubate overnight (approximately 16 hours). The cells were extracted and TS measured by Western blotting as described. The compounds from top to bottom are: (1) 3-hydroxy butanoyl homoserine lactone, (2) butanoyl homoserine lactone; (3) 3-oxo-hexanoyl homoserine lactone; (4) d, 1-hexanoyl homoserine lactone, and (5) 1-homoserine lactone. Tubulin is shown as a loading standard.

[3] = tested on: thymidylate synthase (TS); assay: Evaluation of TS expression by Western blotting in H630-C6 cells
Procedure: FIGS. 4a and 4b. Evaluation of TS expression by Western blotting. […] The cells were harvested for Western blots.
This example describes the relationship between TS levels and luciferase production by various known TS inhibitors. Western blotting was performed as previously described (Dolnick and Black, 1996). Briefly, H630-C6 cells were washed with PBS and extracted with RIPA buffer. 10 μg of total protein was resolved by electrophoresis in a 10% SDS-PAGE and was blotted onto a PVDF membrane (Immobilon-P, Millipore, Bedford, Mass.). The membrane was hybridized with rabbit polyclonal antibody against TS (a gift from Dr. Edward Chu, VA Cancer Center, Yale University, West Haven, Conn.) diluted in SuperBlock Blocking Buffer (Pierce, Rockford, Ill.) plus 0.25% Tween 20 for one hour and hybridized with HRP-linked anti-rabbit secondary antibody (Jackson Laboratories) for an additional one hour. The membrane was detected with SuperSignal West Dura Extended Duration Substrate (Pierce, Rockford, Ill.) and was visualized by exposing the blot to Kodak XAR-5 film. […] The resulting signal was detected as described above.
The induction of luciferase activity depends upon the ability to reduce the amount of endogenous TS bound to the TBEs in the recombinant luciferase transcripts. Dissociation of TS from the luciferase reporter mRNA is expected to be accompanied by the removal of TS from TBEs located in other mRNAs as well, such as endogenous TS mRNA. Therefore, an increase in TS is expected to accompany the increase in luciferase. To verify whether a translational mechanism is involved we evaluated the levels of TS from cells treated with the compounds described above by Western blotting.

[4] = tested on: TS mRNA; assay: Evaluation of TS mRNA expression by RT-PCR in H630-C6 cells; settings: 18 hr exposure
Procedure: FIGS. 5a and 5b. Evaluation of TS mRNA expression by RT-PCR. H630-C6 cells were exposed to the indicated compounds for 18 hr and total RNA was obtained for RT-PCR. Results are shown for 35 cycles of amplification. […] Similar results were obtained at lower cycles (data not shown).
This example describes the TS mRNA levels in the presence of various TS inhibitors. RNA was prepared using an RNAqueous kit (Ambion, Austin, Tex.). Reverse transcription was done using a Cells-to-cDNA kit (Ambion, Austin, Tex.). Polymerase chain reaction (PCR) was performed as described previously (Dolnick et al., 1992). Primers used for TS mRNA are 5′-TTTGGACAGCCTGGGATTCTC-3′ (Sense—SEQ ID NO:6) and 5′-AAAGCACCCTAAACAGCCATT-3′ (antisense—SEQ ID NO:7), generated a 600-bp PCR product. Primers used for β-actin are 5′-CAGCTCACCATGGATGATGATA-3′ (sense—SEQ ID NO:8) and 5′-CCA GAC GCA GGA TGG CAT-3′ (antisense—SEQ ID NO:9), generated a 543-bp PCR product. The PCR cycling condition used was: 95° C. for 30 seconds, 60° C. for 30 seconds, 72° C. for 1 minute, repeated for 25, 30 and 35 cycles (for TS) or 20, 25 and 30 cycles (for β-actin). Product formation was evaluated by ethidium bromide staining and was resolved by electrophoresis in 1.5% agarose gels.

[5] = tested on: thymidylate synthase (TS); assay: Luciferase assay in stably transfected H630-C6 cells (pG3E1-2TBE-Neo); settings: H630-C6 cells
Procedure: FIGS. 3a-3j. RLU production in H630-C6 cells in response to TS inhibitors. H630-C6 cells were evaluated for luciferase activity in response to treatment with the indicated compounds. The cells were exposed to the compounds at the indicated concentrations for 18 hr and luciferase assays were then performed according to the manufacturer's instructions. The mean values of triplicates or quadruplicates are shown along with the standard derivations.
This example describes the stable transfection of cells with the DNA construct of the present invention. To facilitate selection of stable transformants, we added a neomycin-resistance gene to the pG3E1-2TBE (FIG. 1) to generate a new plasmid termed pG3E1-2TBE-Neo as follows. For stable transfection, pG3E1-2TBE-Neo was linearized at the ampicillin resistance gene with Ase I and was introduced into H630 cells as described above. At 24 hrs post-transfection, the cells were exposed to 400 μg/ml of G418 for two weeks. Individual clones were picked at that time and screened for their ability to induce luciferase in response to treatment with 5-FU, a known TS inhibitor. Following selection with G418 and evaluation for changes in luciferase activity after exposure of the cells to 5-FU, the cloned subline H630/pG3E1-2TBE-Neo-L1-2-C6 (H630-C6) was chosen for further study.
The stably transfected H630-C6 cell line was maintained in RPMI 1640 plus 10% dialyzed FBS and 400 μg/ml of geneticin (G418). For luciferase assays, 2×10^4 cells were seeded in each well of a 24-well plate in RPMI 1640 medium plus 10% FBS without G418 and were allowed to attach at least six hr, followed by drug exposure overnight (approximately 18 hr). The cells were then washed with PBS (137 mM NaCl, 2.7 mM KCl, 4.3 mM Na2HPO4, 1.4 mM KH2PO4, pH 7.4), lysed with Passive Lysis Buffer (Promega, Madison) and assayed for luciferase activity using the Luciferase Assay System (Promega, Madison, Wis.) according to the manufacturer's instructions. Relative light units (RLU) were measured with a Lumat LB 9501 luminometer (EG & G Berthold, Wildbad, Germany).
To test H630-C6 as a tool to identify TS modulators three different classes of compounds, i.e., specific or predominantly specific TS inhibitors, agents that inhibit folate pathways or inhibit TS as well as having other targets, and agents that act through TS unrelated sites of action were evaluated for their ability to induce changes in luciferase activity.

CCCC(=O)CC(=O)N[C@H]1CCOC1=O [3-oxo-hexanoyl homoserine lactone]
luciferase activity as a function of concentration [1]: increased the luciferase activity | down-regulation of TS (Western blotting), in words [2]: most active of all the compounds shown

Cc1c2oc3c(C)ccc(C(=O)N[C@@H]4C(=O)N[C@H](C(C)C)C(=O)N5CCC[C@H]5C(=O)N(C)CC(=O)N(C)[C@@H](C(C)C)C(=O)O[C@@H]4C)c3nc-2c(C(=O)N[C@@H]2C(=O)N[C@H](C(C)C)C(=O)N3CCC[C@H]3C(=O)N(C)CC(=O)N(C)[C@@H](C(C)C)C(=O)O[C@@H]2C)c(N)c1=O [Act D, actinomycin D] (I: T[dV]P[Sar][NMeV] / II: T[dV]P[Sar][NMeV]; ester I:1-I:C, II:1-II:C; linker I:N-II:N via Actinocin(9to1))
TS protein level by Western blotting ([3]; H630-C6 cells, 18 hr treatment): no increase of TS protein; also recorded: did not induce TS levels | TS levels as a function of time (time course) ([3]; by 24 hr, data not shown): dropped | TS mRNA level by RT-PCR [4]: not altered | increase of luciferase ([5]; 50 μM, 18 hr): up to 3.5 fold | change in luciferase activity (RLU), in words ([5]; 18 hr exposure): concentration-dependent increase of RLU
